In PubChem BioAssay AID1897 (NMMLSC, 2009):
pEC50, pKi: −log10 of the molar value. Activity calls are given as the source filed them. How the calls were made is not given here.

Biological target: Mitogen-activated protein kinase kinase kinase 2 (Homo sapiens) + Dual specificity mitogen-activated protein kinase kinase 5 (Homo sapiens) (UniProt Q9Y2U5+Q13163)
Test: MEKK2 PB1-MEK5 interaction blockers – biochemical, bead multiplex flow cytometry, wildtype, dose response (AID 1897)
Conditions: MEK5-MEKK2 PB1 binding; for pKi: measured here: Ki from binding competition

Mitogen-activated protein kinase kinase kinase 2 (Homo sapiens) + Dual specificity mitogen-activated protein kinase kinase 5 (Homo sapiens), sequence (Q13163 whole entry, looked up): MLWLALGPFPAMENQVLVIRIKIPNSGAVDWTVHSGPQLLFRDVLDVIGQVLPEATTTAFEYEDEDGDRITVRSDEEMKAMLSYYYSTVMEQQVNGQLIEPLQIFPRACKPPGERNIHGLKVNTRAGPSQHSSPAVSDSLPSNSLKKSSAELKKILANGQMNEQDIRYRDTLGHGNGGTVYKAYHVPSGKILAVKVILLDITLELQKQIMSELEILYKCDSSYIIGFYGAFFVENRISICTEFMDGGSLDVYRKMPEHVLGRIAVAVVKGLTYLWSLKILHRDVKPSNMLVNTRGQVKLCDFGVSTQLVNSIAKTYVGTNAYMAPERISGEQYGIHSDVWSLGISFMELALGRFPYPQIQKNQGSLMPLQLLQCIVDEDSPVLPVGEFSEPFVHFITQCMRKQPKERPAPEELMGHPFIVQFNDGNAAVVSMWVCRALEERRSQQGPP
Mitogen-activated protein kinase kinase kinase 2 (Homo sapiens) + Dual specificity mitogen-activated protein kinase kinase 5 (Homo sapiens), sequence (Q9Y2U5 whole entry, looked up): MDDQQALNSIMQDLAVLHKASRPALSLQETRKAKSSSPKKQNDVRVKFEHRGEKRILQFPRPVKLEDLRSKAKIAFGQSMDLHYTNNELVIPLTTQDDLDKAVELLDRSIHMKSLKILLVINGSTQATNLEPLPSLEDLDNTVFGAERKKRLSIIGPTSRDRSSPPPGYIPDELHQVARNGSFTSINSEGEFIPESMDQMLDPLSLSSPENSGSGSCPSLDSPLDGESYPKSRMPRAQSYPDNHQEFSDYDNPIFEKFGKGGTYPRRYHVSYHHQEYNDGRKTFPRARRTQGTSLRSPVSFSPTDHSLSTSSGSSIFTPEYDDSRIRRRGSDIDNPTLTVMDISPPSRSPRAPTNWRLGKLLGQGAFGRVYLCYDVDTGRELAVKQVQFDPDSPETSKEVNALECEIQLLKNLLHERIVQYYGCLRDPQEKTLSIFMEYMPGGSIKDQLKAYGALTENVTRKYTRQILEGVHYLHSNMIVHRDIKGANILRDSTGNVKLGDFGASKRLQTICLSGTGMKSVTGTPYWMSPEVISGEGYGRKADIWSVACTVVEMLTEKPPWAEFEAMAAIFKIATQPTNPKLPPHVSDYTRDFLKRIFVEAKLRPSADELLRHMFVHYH

Compound | pEC50 | EC50 | pKi
NC(N)=N/N=C/c1ccc(OCc2ccc(Cl)cc2Cl)cc1 | 5.72 |  | 
C#CCOCCOCCOCCNc1nc(N2CCN(C(=O)[C@H](Cc3cc4ccccc4[nH]3)n3cc([C@@H](N)C(C)CC)nn3)CC2)nc(N2CCN(C(=O)[C@H](Cc3cc4ccccc4[nH]3)n3cc([C@@H](N)CC(C)C)nn3)CC2)n1 (some centres undefined) | 5.57 |  | 
CCN1/C(=C\c2ccc3cc(C)ccc3[n+]2CC)Sc2cc(C)c(C)cc21 |  | > 30 µM (inactive) | 
C#CCOCCOCCOCCNc1nc(N2CCN(C(=O)[C@H]([C@@H](C)CC)n3cc([C@@H](N)Cc4ccc(O)cc4)nn3)CC2)nc(N2CCN(C(=O)[C@H](CCCCN)n3cc([C@@H](N)CC(C)C)nn3)CC2)n1 | 4.99 |  | 
FC(F)(F)c1cccc(NC(=S)N(CCCN2CCCC2)Cc2cccn2Cc2ccc(Cl)cc2)c1 | 5.28 |  | 
C#CCOCCOCCOCCNc1nc(N2CCN(C(=O)[C@H](Cc3ccc(O)cc3)n3cc([C@@H](N)C(C)CC)nn3)CC2)nc(N2CCN(C(=O)[C@H](Cc3cc4ccccc4[nH]3)n3cc([C@@H](N)CC(C)C)nn3)CC2)n1 (some centres undefined) |  | > 30 µM (inactive) | 
COc1cc2nc(N3CCN(c4cc(C)ccc4C)CC3)nc(N)c2cc1OC | 5.41 |  | 
C#CCOCCOCCOCCNc1nc(N2CCN(C(=O)C(Cc3ccc(O)cc3)n3cc(C(N)CC(C)C)nn3)CC2)nc(N2CCN(C(=O)C(Cc3cc4ccccc4[nH]3)n3cc(C(N)C(C)CC)nn3)CC2)n1 (centres undefined) |  | > 30 µM (inactive) | 
CC(=O)Nc1ccc(OCC(O)Cn2c3ccccc3c3ccccc32)cc1 (centres undefined) |  | > 30 µM (inactive) | 
CC[n+]1c(/C=C/C=C/N(C(C)=O)c2ccccc2)sc2ccccc21 |  | > 30 µM (inactive) | 
c1ccc(CNc2nc(NCc3ccccc3)c3ccccc3n2)cc1 |  | > 30 µM (inactive) | 
O=C(CCCC(=O)N(CC(=O)NC1CCCC1)C1CCCC1)Nc1ccccn1 |  | > 30 µM (inactive) | 
C#CCOCCOCCOCCNc1nc(N2CCN(C(=O)[C@H](Cc3ccc(O)cc3)n3cc([C@@H](N)CC(C)C)nn3)CC2)nc(N2CCN(C(=O)[C@H](Cc3ccc(O)cc3)n3cc([C@@H](N)CC(C)C)nn3)CC2)n1 | 5.06 |  | 
Cc1nc(N)sc1-c1csc(Nc2ncccn2)n1 |  | > 30 µM (inactive) | 
Nc1ccc2nc(-c3ccc(-c4nc5ccc(N)cc5[nH]4)cc3)[nH]c2c1 |  | > 30 µM (inactive) | 
CCC(=C/c1sc2ccc3ccccc3c2[n+]1C)/C=C1\Sc2ccc3ccccc3c2N1C | 6.85 |  | 6.92
COc1ccc(CSc2n[nH]c(C)n2)cc1[N+](=O)[O-] |  | > 30 µM (inactive) | 
COc1ccc(-c2csc(N(CCCN(C)C)C(=O)c3ccccc3Cl)n2)cc1 |  | > 30 µM (inactive) | 
COc1cc(/C=N/NC(=O)c2cc3ccccc3cc2O)ccc1OCCN1CCCCC1 |  | > 30 µM (inactive) | 

Compound | pEC50 | EC50 | pKi
CCCCn1c(O)c(/C=C/C=C/C=Nc2ccccc2)sc1=S | 5.95 |  | 6.00
CN1CCN(c2ccc(NC(=O)c3ccc(-c4ccc(Cl)cc4)o3)cc2)CC1 | 5.65 |  | 5.69
O=C(Nc1ccc(C2=NCCN2)cc1)c1ccc(C(=O)Nc2ccc(C3=NCCN3)cc2)c([N+](=O)[O-])c1 |  | > 30 µM (inactive) | 
CSc1cccc(NC(=S)N(CCCN2CCCC2)Cc2cccn2Cc2ccc(Cl)cc2)c1 | 5.24 |  | 
CCCN(CCC)CCNC(=O)c1cc2c(-c3ccc(Cl)cc3)nn(C)c2s1 | 4.82 |  | 
C#CCOCCOCCOCCNc1nc(N2CCN(C(=O)C([C@@H](C)CC)n3cc(C(N)COC(=O)C(F)(F)F)nn3)CC2)nc(N2CCN(C(=O)[C@H](CCCCN)n3cc(C(N)[C@H](C)CC)nn3)CC2)n1 (some centres undefined) |  | > 30 µM (inactive) | 
CCN1CCN(CCNC(=O)c2ccc(/C=C3/Sc4ccccc4N(Cc4cccc(Cl)c4)C3=O)cc2)CC1 | 5.42 |  | 
Nc1ccc(Nc2ccccc2N)cc1 | 4.63 |  | 4.68
CCc1ccc(Nc2n[n+](-c3ccccc3)c(-c3ccc(OCc4ccccc4)cc3)s2)cc1 | 5.26 |  | 
CCN(CC)CCOC(=O)c1ccc(N/C=C(/C#N)c2nc(-c3cc4ccccc4oc3=O)cs2)cc1 | 5.31 |  | 5.36
CCCCCCCCCCOC(=O)Cn1c(COc2ccccc2OC)[n+](C)c2ccccc21 | 5.52 |  | 
OCCCCNCc1ccc(OCc2ccc(Cl)cc2Cl)cc1 |  | > 30 µM (inactive) | 
C#CCOCCOCCOCCNc1nc(N2CCN(C(=O)[C@H]([C@@H](C)CC)n3cc([C@@H](N)CO)nn3)CC2)nc(N2CCN(C(=O)[C@H](Cc3cc4ccccc4[nH]3)n3cc([C@@H](N)C(C)CC)nn3)CC2)n1 (some centres undefined) |  | > 30 µM (inactive) | 
CCN1/C(=C/C=C/C=C/C=C/c2sc3ccccc3[n+]2CC)Sc2ccccc21 |  | > 30 µM (inactive) | 
COc1ccc(-c2cc(C#N)nc(N3CCNCC3)n2)cc1 |  | > 30 µM (inactive) | 
O=C(OCC1O[C@@H](OC(=O)c2cc(O)c(O)c(O)c2)[C@@H](OC(=O)c2cc(O)c(O)c(O)c2)[C@@H](OC(=O)c2cc(O)c(O)c(O)c2)[C@@H]1OC(=O)c1cc(O)c(O)c(O)c1)c1cc(O)c(O)c(O)c1 (some centres undefined) |  | > 30 µM (inactive) | 
CCCCCCCCCCOC(=O)Cn1c(COc2ccc(C)cc2)[n+](C)c2ccccc21 | 5.74 |  | 
Cc1c2cc(O)c(=O)cc-2oc2cc(O)c(O)cc12 |  |  | 5.44
CNC[C@H](CC1CCCCC1)NC[C@H](Cc1ccccc1)NCCC12CC3CC(CC(C3)C1)C2 | 5.31 |  | 

Compound | pEC50 | EC50 | pKi
CN(C)CCCNc1cc(C(C)(C)C)nc2c(-c3ccc(Cl)cc3)cnn12 | 5.36 |  | 
COc1ccccc1N(CN1C(=O)c2ccccc2C1=O)C(=O)c1cccc(C)c1 |  | > 30 µM (inactive) | 
C#CCOCCOCCOCCNc1nc(N2CCN(C(=O)[C@H]([C@@H](C)CC)n3cc([C@@H](N)CO)nn3)CC2)nc(N2CCN(C(=O)[C@H](Cc3cc4ccccc4[nH]3)n3cc([C@@H](N)Cc4ccc(O)cc4)nn3)CC2)n1 | 6.28 |  | 
CCN(CC)CCOC(=O)c1ccc(N/C=C(/C#N)c2nc(-c3ccc4c(c3)OCO4)cs2)cc1 |  | > 30 µM (inactive) | 
Cc1ccc(-c2csc(NC(=O)C[n+]3cc(-c4ccc(C)cc4)n4c3CCC4)n2)cc1 |  | > 30 µM (inactive) | 
Cc1cc(N=Nc2ccc(C)c(N=Nc3cc(C)c(N)cc3N)c2)c(N)cc1N |  | > 30 µM (inactive) | 
CCC(/C=C1\Sc2ccc(OC)cc2N1CC)=C\c1sc2ccc(OC)cc2[n+]1CCCS(=O)(=O)[O-] | 5.35 |  | 5.40
COc1ccc(C2NCCc3c2[nH]c2ccccc32)cc1CN1CCc2cc(OC)c(OC)cc2C1C (centres undefined) | 4.98 |  | 
COc1ccc2nc3cc(Cl)ccc3c(Nc3cc(C(C)C)c(O)cc3C)c2c1 | 5.71 |  | 
CCCOc1ccc2c(c1)C(=NN=C(N)N)c1cc(OCCC)ccc1-2 | 5.34 |  | 
Cc1cc2ccccc2n1CCNC(=O)c1ccccc1 | 5.52 |  | 5.57
C/C(=N\NC(=O)c1cc(O)cc(O)c1)c1ccc(NC(=O)Cc2ccccc2)cc1 |  | > 30 µM (inactive) | 
O=C1c2ccccc2-c2onc3ccc(NCc4ccco4)c1c23 |  | > 30 µM (inactive) | 
CCCCCc1cc(=O)oc2c(C(CCN3CCCC(C)C3)c3ccc(OC)cc3)c(OC)cc(OC)c12 (centres undefined) | 5.02 |  | 
CCc1ccc(-c2nn(-c3ccccc3)cc2CSC(=N)N)cc1 | 5.29 |  | 
CCOC(=O)C1=C(c2ccccc2)NC(N)=NC1c1ccc(OCc2ccc(C(=O)OC)cc2)cc1 (centres undefined) |  | > 30 µM (inactive) | 
COc1ccc(-c2[nH]ncc2CN2CCCCCCC2)c(OC)c1 |  | > 30 µM (inactive) | 
CCOC(=O)c1c(-c2ccc(-c3ccccc3)cc2)csc1NC(=O)CNCCN(C)C | 5.81 |  | 
NC(=NCCCCCCN=C(N)/N=C(\N)Nc1ccc(Cl)cc1)/N=C(\N)Nc1ccc(Cl)cc1 | 6.17 |  | 
